Where a name gives a salt, the structure may show the parent alone. Where only a bound is given, the exact number is not on record here.

One may read the melting point as the temperature, or range, at which the solid turns liquid. As for `Cc1nc2ccc(N3C[C@@H](C)N[C@@H](C)C3)nn2c1-c1ccncc1` (as salt: HCl) [Compound 54, 6-(cis-3,5-Dimethylpiperazin-1-yl)-2-methyl-3-pyridin-4-ylimidazo[1,2-b]pyridazine], the melting point fell in the range of 343 to 345 °C.
Under `Cc1nc2ccc(N3CCN[C@H](C)C3)nn2c1-c1ccnc(N)c1` [Compound 28, 4-[2-Methyl-6-((R)-3-methylpiperazin-1-yl)imidazo[1,2-b]pyridazin-3-yl]pyridin-2-ylamine] stands 172 to 177 °C; under `Cc1nc2ccc(N3CCN[C@@H](C)C3)nn2c1-c1ccnc(N)c1` [Compound 38, 4-[2-Methyl-6-((S)-3-methylpiperazin-1-yl)imidazo[1,2-b]pyridazin-3-yl]pyridin-2-ylamine], 172 to 177 °C; under `COc1cc(-c2c(C)nc3ccc(N4CC5CNCC5C4)nn23)ccn1` (stereo not shown) [Compound 74, 6-Hexahydropyrrolo[3,4-c]pyrrol-2(1H)-yl-3-(2-methoxypyridin-4-yl)-2-methylimidazo[1,2-b]-pyridazine], 95 °C.
On to `Cc1cc(-c2c(C)nc3ccc(N4CCC(N5CCCC5)CC4)nn23)ccn1` [Compound 83, 2-Methyl-3-(2-methylpyridin-4-yl)-6-(4-pyrrolidin-1-ylpiperidin-1-yl)imidazo[1,2-b]pyridazine], for which the melting point fell in the range of 124 to 126 °C.
Consider `Cc1cc(-c2c(C)nc3ccc(N4C[C@@H]5C[C@@H]4CN5)nn23)ccn1` (as salt: HBr), for which the melting point is above 300 °C.
As to `Cc1cc(-c2c(C)nc3ccc(N4CCC5(CC4)CNC5)nn23)ccn1` [Compound 76, 6-(2,7-Diazaspiro[3.5]non-7-yl)-2-methyl-3-(2-methylpyridin-4-yl)imidazo[1,2-b]pyridazine], the melting point was in the range of 117 to 120 °C.
In the case of `Cc1nc2ccc(N3C[C@@H]4C[C@H]3CN4)nn2c1-c1ccncc1`, the melting point is 120 °C (dec.).
In the case of `Cc1cc(-c2c(C)nc3ccc(N4CCN(C(C)C)CC4)nn23)ccn1` [Compound 45, 6-(4-Isopropylpiperazin-1-yl)-2-methyl-3-(2-methylpyridin-4-yl)imidazo[1,2-b]pyridazine], the melting point fell in the range of 97 to 99 °C.
The compound `CNc1cc(-c2c(C)nc3ccc(N4C[C@@H](C)N[C@@H](C)C4)nn23)ccn1` [Compound 57, {4-[6-(cis-3,5-Dimethylpiperazin-1-yl)-2-methylimidazo[1,2-b]pyridazin-3-yl]pyridin-2-yl}-methylamine] displayed a melting point of 111 to 126 °C.
Compound `c1cc(-c2c(C3CC3)nc3ccc(N4CCNCC4)nn23)ccn1` [Compound 11, 2-Cyclopropyl-6-piperazin-1-yl-3-pyridin-4-ylimidazo[1,2-b]pyridazine] came in with a melting point of 169 to 171 °C.
In the case of `Cc1nc2ccc(N3CC4CN(C(C)C)CC4C3)nn2c1-c1ccncc1` (stereo not shown) [Compound 72, 6-(−5-Isopropylhexahydropyrrolo[3,4-c]pyrrol-2(1H)-yl)-2-methyl-3-pyridin-4-ylimidazo[1,2-b]-pyridazine], the melting point fell in the range of 172 to 175 °C.
Turning to `CC(C)Cc1nc2ccc(N3CCNCC3)nn2c1-c1ccncc1` [Compound 16, 2-Isobutyl-6-piperazin-1-yl-3-pyridin-4-ylimidazo[1,2-b]pyridazine], the melting point fell in the range of 92 to 119 °C.
The figure for `Cc1nc2ccc(N3CCN[C@H](C)C3)nn2c1-c1ccncc1` [Compound 26, 2-Methyl-6-((R)-3-methylpiperazin-1-yl)-3-pyridin-4-ylimidazo[1,2-b]pyridazine] is 146 to 148 °C.
In turn, `Cc1nc2ccc(N3CCN(C4CCC4)CC3)nn2c1-c1ccnc(N)c1` [Compound 48, 4-[6-(4-Cyclobutylpiperazin-1-yl)-2-methylimidazo[1,2-b]pyridazin-3-yl]pyridin-2-ylamine] came in with a melting point of 132 to 144 °C.
The figure for `Cc1nc2ccc(N3CCNC(CO)C3)nn2c1-c1ccncc1` (stereo not shown) [Compound 41, [4-(2-Methyl-3-pyridin-4-ylimidazo[1,2-b]pyridazin-6-yl)piperazin-2-yl]methanol] is 237 to 240 °C; for `Cc1nc2ccc(N3CCNC(C)(C)C3)nn2c1-c1ccnc(CN)c1` [Compound 50, {4-[6-(3,3-Dimethylpiperazin-1-yl)-2-methylimidazo[1,2-b]pyridazin-3-yl]pyridin-2-yl}methylamine] it is 151 to 156 °C.
Consider `CCN1CCN(c2ccc3nc(C)c(-c4ccncc4)n3n2)CC1` (as salt: HCl) [Compound 42, 6-(4-Ethylpiperazin-1-yl)-2-methyl-3-pyridin-4-ylimidazo[1,2-b]pyridazine], for which the melting point was in the range of 305 to 307 °C.
`Cc1nc2ccc(N3C[C@@H](C)N[C@@H](C)C3)nn2c1-c1ccnc(N)c1` [Compound 56, 4-[6-(cis-3,5-Dimethylpiperazin-1-yl)-2-methylimidazo[1,2-b]pyridazin-3-yl]pyridin-2-ylamine] yielded a melting point of 213 to 215 °C.
`Cc1cc(-c2c(C)nc3ccc(N4CCC5(CCCNC5)CC4)nn23)ccn1` (as salt: HCl) had a melting point above 295 °C.
Take `Cc1nc2ccc(N3C[C@H]4CCCN[C@@H]4C3)nn2c1-c1ccncc1` [Compound 75, (R,S)-2-Methyl-6-(octahydropyrrolo[3,4-b]pyridin-6-yl)-3-pyridin-4-ylimidazo[1,2-b]-pyridazine]: the melting point lay within 130 to 135 °C.
`Cc1cc(-c2c(C)nc3ccc(N4C[C@H]5CCN[C@@H]5C4)nn23)ccn1` [Compound 65, (R,S)-6-(Hexahydropyrrolo[3,4-b]pyrrol-5(1H)-yl)-2-methyl-3-(2-methylpyridin-4-yl)imidazo[1,2-b]pyridazine] came in with a melting point of 131 to 133 °C.
The figure for `Cc1nc2ccc(N3CC4CN(C(C)C)CC4C3)nn2c1-c1ccnc(N)c1` (stereo not shown) [Compound 73, 4-[6-(−5-Isopropylhexahydropyrrolo[3,4-c]pyrrol-2(1H)-yl)-2-methylimidazo[1,2-b]pyridazin-3-yl]pyridin-2-ylamine] is 215 to 218 °C; for `Cc1nc2ccc(N3CCN[C@@H](C)C3)nn2c1-c1ccncc1` [Compound 35, 2-Methyl-6-((S)-3-methylpiperazin-1-yl)-3-pyridin-4-ylimidazo[1,2-b]pyridazine] it is 146 to 148 °C.
As to `Cc1nc2ccc(N3CCN(C)CC3)nn2c1-c1ccncc1` [Compound 39, 2-Methyl-6-(4-methylpiperazin-1-yl)-3-pyridin-4-ylimidazo[1,2-b]pyridazine], the melting point lay within 150 to 152 °C.
Turning to `Cc1nc2ccc(N3CCC4(CC3)CNCCO4)nn2c1-c1ccncc1` (as salt: HCl), the melting point is above 255 °C.
Under `CN1CCN(c2ccc3nc(C(F)(F)F)c(-c4ccncc4)n3n2)CC1` [Compound 40, 6-(4-Methylpiperazin-1-yl)-3-pyridin-4-yl-2-trifluoromethylimidazo[1,2-b]pyridazine] stands 182 to 184 °C.
The compound `Cc1nc2ccc(N3CCNCC3)nn2c1-c1ccncc1` (as salt: HCl) [Compound 2, 2-Methyl-6-piperazin-1-yl-3-pyridin-4-yl-imidazo[1,2-b]pyridazine] yielded a melting point of 319 to 321 °C.
`Cc1nc2ccc(N3CCN(C4CCC4)CC3)nn2c1-c1ccncc1` [Compound 47, 6-(4-Cyclobutylpiperazin-1-yl)-2-methyl-3-pyridin-4-ylimidazo[1,2-b]pyridazine] yielded a melting point of 122 to 132 °C.
The figure for `CC(C)c1nc2ccc(N3CCNCC3)nn2c1-c1ccncc1` [Compound 9, 2-Isopropyl-6-piperazin-1-yl-3-pyridin-4-ylimidazo[1,2-b]pyridazine] is 199 to 201 °C.
Under `CCN1CCN(c2ccc3nc(C)c(-c4ccnc(C)c4)n3n2)CC1` [Compound 43, 6-(4-Ethylpiperazin-1-yl)-2-methyl-3-(2-methylpyridin-4-yl)imidazo[1,2-b]pyridazine] stands 144 to 146 °C; under `Cc1nc2ccc(N3CCNCC3)nn2c1-c1ccnc(F)c1` [Compound 3, 3-(2-Fluoropyridin-4-yl)-2-methyl-6-piperazin-1-ylimidazo[1,2-b]pyridazine], 139 to 141 °C; under `Cc1cc(-c2c(C)nc3ccc(N4C[C@@H](C)N[C@@H](C)C4)nn23)ccn1` [Compound 55, 6-(cis-3,5-Dimethylpiperazin-1-yl)-2-methyl-3-(2-methylpyridin-4-yl)imidazo[1,2-b]pyridazine], 127 to 129 °C.
As to `Cc1cc(-c2c(C)nc3ccc(N4CCN[C@H](C)C4)nn23)ccn1` [Compound 27, 2-Methyl-6-((R)-3-methylpiperazin-1-yl)-3-(2-methylpyridin-4-yl)imidazo[1,2-b]pyridazine], the melting point lay in the range of 157 to 159 °C.
As for `Cc1nc2ccc(N3CCC4(CC3)CNCCO4)nn2c1-c1ccnc(N)c1` (as salt: HCl), the melting point is above 300 °C.
`Cc1nc2ccc(N3CCC(N4CCCC4)CC3)nn2c1-c1ccnc(N)c1` [Compound 84, 4-[2-Methyl-6-(4-pyrrolidin-1-ylpiperidin-1-yl)imidazo[1,2-b]pyridazin-3-yl]pyridin-2-ylamine] came in with a melting point of 129 to 138 °C.
As for `Cc1nc2ccc(N3CC4CNCC4C3)nn2c1-c1ccnc(N)c1` (stereo not shown) [Compound 68, {4-[6-(Hexahydropyrrolo[3,4-c]pyrrol-2(1H)-yl)-2-methylimidazo[1,2-b]pyridazin-3-yl]pyridin-2-yl}amine], the melting point was > 155 °C (dec.).
`Cc1nc2ccc(N3CCC(N4CCCC4)CC3)nn2c1-c1ccncc1` [Compound 82, 2-Methyl-3-pyridin-4-yl-6-(4-pyrrolidin-1-ylpiperidin-1-yl)imidazo[1,2-b]pyridazine] returned a melting point of 150 to 153 °C.
In the case of `Cc1cc(-c2c(C)nc3ccc(N4CC5CNCC5C4)nn23)ccn1` (stereo not shown) (as salt: HCl) [Compound 67, 6-Hexahydropyrrolo[3,4-c]pyrrol-2(1H)-yl-2-methyl-3-(2-methylpyridin-4-yl)-imidazo[1,2-b]-pyridazine], the melting point fell in the range of 214 to 221 °C.
`COc1cc(-c2c(C)nc3ccc(N4CCN[C@@H](C)C4)nn23)ccn1` [Compound 36, 3-(2-Methoxypyridin-4-yl)-2-methyl-6-((S)-3-methylpiperazin-1-yl)imidazo[1,2-b]pyridazine] showed a melting point of 106 to 108 °C.

The values above are taken from patent US20110312934A1, “2-ALKYL-6-CYCLOAMINO-3-(PYRIDIN-4-YL)IMIDAZO[1,2-B]-PYRIDAZINE DERIVATIVES, PREPARATION THEREOF, AND THERAPEUTIC APPLICATION THEREOF” (SANOFI-AVENTIS, priority 2008, published 2011).
